Tests used:
[1] = system: NCI-H460; test: cells; settings: Homo sapiens, NCI-H460, 48 h
Description: Antiproliferative activity against human NCI-H460 cells assessed as reduction in cell viability incubated for 48 hrs by sulphorhodamine B assay

[2] = system: HCT-116; test: cells; settings: Homo sapiens, HCT-116, 48 h
Description: Antiproliferative activity against human HCT-116 cells assessed as reduction in cell viability incubated for 48 hrs by sulphorhodamine B assay

[3] = system: MCF7; test: cells; settings: Homo sapiens, MCF7, 48 h
Description: Antiproliferative activity against human MCF7 cells assessed as reduction in cell viability incubated for 48 hrs by sulphorhodamine B assay

[4] = system: U-251; test: cells; settings: Homo sapiens, U-251, 48 h
Description: Antiproliferative activity against human U-251 cells assessed as reduction in cell viability incubated for 48 hrs by sulphorhodamine B assay

[5] = system: Jurkat; test: cells; settings: Homo sapiens, 48 h
Description: Antiproliferative activity against human Jurkat cells assessed as reduction in cell viability incubated for 48 hrs by sulphorhodamine B assay

[6] = system: HeLa; test: cells; settings: Homo sapiens, 48 h
Description: Antiproliferative activity against human HeLa cells assessed as reduction in cell viability incubated for 48 hrs by sulphorhodamine B assay

[7] = system: MDA-MB-231; test: cells; settings: Homo sapiens, MDA-MB-231, 48 h
Description: Antiproliferative activity against human MDA-MB-231 cells assessed as reduction in cell viability incubated for 48 hrs by sulphorhodamine B assay

[8] = system: HCT-116; test: cells; settings: Homo sapiens, HCT-116, 48 h; remark: listed apart in the source
Description: Antiproliferative activity against human HCT-116 p53-/- cells assessed as reduction in cell viability incubated for 48 hrs by sulphorhodamine B assay

[9] = system: SiHa; test: cells; settings: Homo sapiens, 48 h
Description: Antiproliferative activity against human SiHa cells assessed as reduction in cell viability incubated for 48 hrs by sulphorhodamine B assay

[10] = system: A549; test: Antiproliferative activity against human A549 cells assessed as reduction in cell viability incubated for 48 hrs by sulphorhodamine B assay; type: functional
[11] = system: HEK293; test: Antiproliferative activity against human HEK293 cells assessed as reduction in cell viability incubated for 48 hrs by sulphorhodamine B assay; type: functional

SMILES	GI50 [1] [nM]	GI50 [2] [nM]	GI50 [3] [nM]	GI50 [4] [nM]	GI50 [5] [nM]	GI50 [6] [nM]	GI50 [7] [nM]	GI50 [8] [nM]	GI50 [9] [nM]	GI50 [10] [nM]	GI50 [11] [nM]
O=C1c2cnc3c(Cl)cccc3c2C(=O)c2[nH]c3ccccc3c21	> 4000	> 4000	> 4000	> 4000	> 4000	> 4000	> 4000	> 4000	> 4000		
O=C1c2cnc3cccc(Cl)c3c2C(=O)c2[nH]c3ccccc3c21	> 4000	3500	800	> 4000	> 4000	> 4000	> 4000	> 4000	> 4000		
Nc1nc2cc(F)ccc2c2cc3[nH]c4ccccc4c3cc12	140	1200	130	1200		10	1250		1350		
O=C1c2[nH]c3ccccc3c2C(=O)c2cnc3ccc(Br)cc3c21	1100	700	220	600	1500	290	270	1130	1400		
O=C1c2[nH]c3ccccc3c2C(=O)c2cnc3ccc(Cl)cc3c21	700	420	350	500	1400	500	170	1500	1670		
O=C1c2[nH]c3ccccc3c2C(=O)c2cnc3cc(F)c(Cl)cc3c21	> 4000	> 4000	1350	> 4000	> 4000	2000	> 4000	> 4000	> 4000		
Nc1nc2ccccc2c2cc3c(cc12)[nH]c1ccccc13	1050	1050	1000	650		1400	1100		1300		
O=C1c2cnc3c(Cl)cc(Cl)cc3c2C(=O)c2[nH]c3ccccc3c21	730	1200	500	1500	2600	500	200	2000	1800		
Cc1c2cnc3cc(F)ccc3c2cc2[nH]c3ccccc3c12	40	30000	270	> 4000	> 4000	50	> 4000		> 4000	> 4000	> 4000
COc1cccc2c3c(cnc12)C(=O)c1c([nH]c2ccccc12)C3=O	> 4000	330	600	1830	> 4000	390	310	> 4000	> 4000		
O=C1c2[nH]c3ccccc3c2C(=O)c2cnc3cc4c(cc3c21)OCO4	> 4000	> 4000	110	> 4000	> 4000	> 4000	> 4000	> 4000	> 4000		

— ChEMBL document CHEMBL4706477, “Synthesis and Biological Evaluation of Calothrixins B and their Deoxygenated Analogues” (J Med Chem, 2018)
